Data: the supplement of paper PMC10307832

Columns and labels:
Assay in all cases: relative viability (nuclei count vs DMSO), 5 days (fraction); higher = more cells survive
[1] = compound: CC1(COc2ccc3c(c2)ncn3-c2ccc3cccc(N4CCC(N)CC4)c3n2)COC1 [Crenolanib] + C[C@]1(O)C[C@@H](c2nc(-c3ccc4ccc(-c5ccccc5)nc4c3)c3c(N)nccn32)C1 [Linsitinib] (partner 1 µM)
Procedure, shortened: (§1)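 Cells from lung cancer lines were seeded into 1536-well plates and, one day later, dosed by pin tool. Treatments were either a single drug or a fixed dose of an anchor drug with five library-drug doses (not always all listed) in √10 steps. After 5 days, nuclei were stained in a one-step fixation (final 0.05% Triton X-100, 1% formaldehyde, 1 ug/ml Hoechst) and counted on 4× images, and relative viability is the treated-to-vehicle nuclei ratio, as the median of duplicate plates.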

[2] = compound: O=C1NC(=O)[C@@H](c2cn3c4c(cccc24)CCC3)[C@@H]1c1c[nH]c2ccccc12 [Tivantinib] + Nc1ncn([C@H]2C[C@H](O)[C@@H](CO)O2)c(=O)n1 [Decitabine] (partner 2 µM)
Procedure, shortened: as §1

[3] = compound: O=C1NC(=O)[C@@H](c2cn3c4c(cccc24)CCC3)[C@@H]1c1c[nH]c2ccccc12 [Tivantinib] + CC(=O)c1c(C)c2cnc(Nc3ccc(N4CCNCC4)cn3)nc2n(C2CCCC2)c1=O [Palbociclib] (partner 0.5 µM)
Procedure, shortened: as §1

[4] = compound: CC1(COc2ccc3c(c2)ncn3-c2ccc3cccc(N4CCC(N)CC4)c3n2)COC1 [Crenolanib] + C[C@@H](Oc1cc(-c2cnn(C3CCNCC3)c2)cnc1N)c1c(Cl)ccc(F)c1Cl [Crizotinib] (partner 1 µM)
Procedure, shortened: as §1

In the case of HCC-366, the relative viability ([1]; first compound 0.01 µM) is reported as 0.628, the relative viability ([1]; first compound 0.03162 µM) is reported as 0.738 and the relative viability ([1]; first compound 0.1 µM) is reported as 0.574. The relative viability ([1]; first compound 0.3162 µM) was 0.819, the relative viability ([1]; first compound 1 µM) was 0.69 and the relative viability ([2]; first compound 0.01 µM) was 0.349. The relative viability ([2]; first compound 0.03162 µM) was 0.289, the relative viability ([2]; first compound 0.1 µM) was 0.324 and the relative viability ([2]; first compound 0.3162 µM) was 0.301. The relative viability ([3]; first compound 0.01 µM) was 0.434, the relative viability ([3]; first compound 0.03162 µM) was 0.362 and the relative viability ([3]; first compound 0.1 µM) was 0.399. The relative viability ([3]; first compound 0.3162 µM) was 0.337, the relative viability ([4]; first compound 0.01 µM) was 0.487 and the relative viability ([4]; first compound 0.03162 µM) was 0.466. It also gave a relative viability ([4]; first compound 0.1 µM) of 0.481, a relative viability ([4]; first compound 0.3162 µM) of 1.04 and a relative viability ([4]; first compound 1 µM) of 0.462.
With HCC-827 the relative viability ([1]; first compound 0.01 µM) was 0.958, the relative viability ([1]; first compound 0.03162 µM) was 0.94 and the relative viability ([1]; first compound 0.1 µM) was 0.946. It also gave a relative viability ([1]; first compound 0.3162 µM) of 0.953, a relative viability ([1]; first compound 1 µM) of 0.872 and a relative viability ([2]; first compound 0.01 µM) of 0.312. For the same cell line, the relative viability ([2]; first compound 0.03162 µM) was 0.396, the relative viability ([2]; first compound 0.1 µM) was 0.316 and the relative viability ([3]; first compound 0.01 µM) was 0.458. It also gave a relative viability ([3]; first compound 0.03162 µM) of 0.531, a relative viability ([3]; first compound 0.1 µM) of 0.487 and a relative viability ([4]; first compound 0.01 µM) of 0.938. The relative viability ([4]; first compound 0.03162 µM) was 0.885, the relative viability ([4]; first compound 0.1 µM) was 0.932 and the relative viability ([4]; first compound 0.3162 µM) was 0.964. The relative viability ([4]; first compound 1 µM) was 0.884.
Work on HOP-62 yielded a relative viability ([1]; first compound 0.01 µM) of 0.94, a relative viability ([1]; first compound 0.03162 µM) of 0.764 and a relative viability ([1]; first compound 0.1 µM) of 0.906. For the same cell line, the relative viability ([1]; first compound 0.3162 µM) was 1.04, the relative viability ([1]; first compound 1 µM) was 1.01 and the relative viability ([2]; first compound 0.01 µM) was 0.173. It also gave a relative viability ([2]; first compound 0.03162 µM) of 0.191, a relative viability ([2]; first compound 0.1 µM) of 0.196 and a relative viability ([2]; first compound 0.3162 µM) of 0.242. The relative viability ([3]; first compound 0.01 µM) was 0.454, the relative viability ([3]; first compound 0.03162 µM) was 0.399 and the relative viability ([3]; first compound 0.1 µM) was 0.425. The relative viability ([3]; first compound 0.3162 µM) was 0.466, the relative viability ([4]; first compound 0.01 µM) was 0.87 and the relative viability ([4]; first compound 0.03162 µM) was 1.03. The relative viability ([4]; first compound 0.1 µM) was 0.984, the relative viability ([4]; first compound 0.3162 µM) was 0.821 and the relative viability ([4]; first compound 1 µM) was 1.02.
Cell Line IA-LM has a relative viability ([1]; first compound 0.01 µM) of 0.717, a relative viability ([1]; first compound 0.03162 µM) of 0.558 and a relative viability ([1]; first compound 0.1 µM) of 0.605. The relative viability ([1]; first compound 0.3162 µM) was 0.841, the relative viability ([1]; first compound 1 µM) was 0.834 and the relative viability ([4]; first compound 0.01 µM) was 0.925. For the same cell line, the relative viability ([4]; first compound 0.03162 µM) was 0.9, the relative viability ([4]; first compound 0.1 µM) was 0.631 and the relative viability ([4]; first compound 0.3162 µM) was 1.29. For the same cell line, the relative viability ([4]; first compound 1 µM) was 1.26.
LC-2-ad gave a relative viability ([1]; first compound 0.01 µM) of 0.834, a relative viability ([1]; first compound 0.03162 µM) of 0.887 and a relative viability ([1]; first compound 0.1 µM) of 0.797. It also gave a relative viability ([1]; first compound 0.3162 µM) of 0.844, a relative viability ([1]; first compound 1 µM) of 0.873 and a relative viability ([2]; first compound 0.01 µM) of 0.858. The relative viability ([2]; first compound 0.03162 µM) was 0.838, the relative viability ([2]; first compound 0.1 µM) was 0.815 and the relative viability ([2]; first compound 0.3162 µM) was 0.804. It also gave a relative viability ([3]; first compound 0.01 µM) of 0.46, a relative viability ([3]; first compound 0.03162 µM) of 0.442 and a relative viability ([3]; first compound 0.1 µM) of 0.515. It also gave a relative viability ([3]; first compound 0.3162 µM) of 0.456, a relative viability ([4]; first compound 0.01 µM) of 0.439 and a relative viability ([4]; first compound 0.03162 µM) of 0.444. It also gave a relative viability ([4]; first compound 0.1 µM) of 0.56, a relative viability ([4]; first compound 0.3162 µM) of 0.44 and a relative viability ([4]; first compound 1 µM) of 0.486.
Work on LCLC-97TM1 yielded a relative viability ([1]; first compound 0.01 µM) of 0.18, a relative viability ([1]; first compound 0.03162 µM) of 0.222 and a relative viability ([1]; first compound 0.1 µM) of 0.185. It also gave a relative viability ([1]; first compound 0.3162 µM) of 0.186, a relative viability ([1]; first compound 1 µM) of 0.184 and a relative viability ([2]; first compound 0.01 µM) of 0.232. The relative viability ([2]; first compound 0.03162 µM) was 0.226, the relative viability ([2]; first compound 0.1 µM) was 0.226 and the relative viability ([2]; first compound 0.3162 µM) was 0.211. It also gave a relative viability ([3]; first compound 0.01 µM) of 0.271, a relative viability ([3]; first compound 0.03162 µM) of 0.257 and a relative viability ([3]; first compound 0.1 µM) of 0.172. For the same cell line, the relative viability ([3]; first compound 0.3162 µM) was 0.225, the relative viability ([4]; first compound 0.01 µM) was 0.42 and the relative viability ([4]; first compound 0.03162 µM) was 0.355. The relative viability ([4]; first compound 0.1 µM) was 0.479, the relative viability ([4]; first compound 0.3162 µM) was 0.324 and the relative viability ([4]; first compound 1 µM) was 0.457.
In the case of LCLC-103H, the relative viability ([1]; first compound 0.01 µM) is reported as 1.09, the relative viability ([1]; first compound 0.03162 µM) is reported as 0.989 and the relative viability ([1]; first compound 0.1 µM) is reported as 1.08. The relative viability ([1]; first compound 0.3162 µM) was 1.08, the relative viability ([1]; first compound 1 µM) was 0.988 and the relative viability ([2]; first compound 0.01 µM) was 0.658. It also gave a relative viability ([2]; first compound 0.03162 µM) of 0.762, a relative viability ([2]; first compound 0.1 µM) of 0.731 and a relative viability ([2]; first compound 0.3162 µM) of 0.708. It also gave a relative viability ([3]; first compound 0.01 µM) of 0.477, a relative viability ([3]; first compound 0.03162 µM) of 0.449 and a relative viability ([3]; first compound 0.1 µM) of 0.486. For the same cell line, the relative viability ([3]; first compound 0.3162 µM) was 0.409, the relative viability ([4]; first compound 0.01 µM) was 1.12 and the relative viability ([4]; first compound 0.03162 µM) was 1.03. For the same cell line, the relative viability ([4]; first compound 0.1 µM) was 1.06, the relative viability ([4]; first compound 0.3162 µM) was 1 and the relative viability ([4]; first compound 1 µM) was 1.01.
In the case of LK-2, the relative viability ([1]; first compound 0.01 µM) is reported as 0.675, the relative viability ([1]; first compound 0.03162 µM) is reported as 0.626 and the relative viability ([1]; first compound 0.1 µM) is reported as 0.624. For the same cell line, the relative viability ([1]; first compound 0.3162 µM) was 0.425, the relative viability ([1]; first compound 1 µM) was 0.562 and the relative viability ([2]; first compound 0.01 µM) was 0.233. The relative viability ([2]; first compound 0.03162 µM) was 0.196, the relative viability ([2]; first compound 0.1 µM) was 0.262 and the relative viability ([2]; first compound 0.3162 µM) was 0.29. For the same cell line, the relative viability ([3]; first compound 0.01 µM) was 0.643, the relative viability ([3]; first compound 0.03162 µM) was 0.472 and the relative viability ([3]; first compound 0.1 µM) was 0.69. The relative viability ([3]; first compound 0.3162 µM) was 0.369, the relative viability ([4]; first compound 0.01 µM) was 0.238 and the relative viability ([4]; first compound 0.03162 µM) was 0.24. It also gave a relative viability ([4]; first compound 0.1 µM) of 0.219, a relative viability ([4]; first compound 0.3162 µM) of 0.227 and a relative viability ([4]; first compound 1 µM) of 0.213.
Cell Line LOU-NH91 has a relative viability ([1]; first compound 0.01 µM) of 1.02, a relative viability ([1]; first compound 0.03162 µM) of 0.908 and a relative viability ([1]; first compound 0.1 µM) of 0.822. It also gave a relative viability ([1]; first compound 0.3162 µM) of 0.887, a relative viability ([1]; first compound 1 µM) of 0.936 and a relative viability ([2]; first compound 0.01 µM) of 0.825. For the same cell line, the relative viability ([2]; first compound 0.03162 µM) was 0.805, the relative viability ([2]; first compound 0.1 µM) was 0.803 and the relative viability ([2]; first compound 0.3162 µM) was 0.669. The relative viability ([3]; first compound 0.01 µM) was 0.557, the relative viability ([3]; first compound 0.03162 µM) was 0.543 and the relative viability ([3]; first compound 0.1 µM) was 0.527. For the same cell line, the relative viability ([3]; first compound 0.3162 µM) was 0.541, the relative viability ([4]; first compound 0.01 µM) was 0.765 and the relative viability ([4]; first compound 0.03162 µM) was 0.753. It also gave a relative viability ([4]; first compound 0.1 µM) of 0.688, a relative viability ([4]; first compound 0.3162 µM) of 0.722 and a relative viability ([4]; first compound 1 µM) of 0.729.
Cell Line LU99A has a relative viability ([1]; first compound 0.01 µM) of 0.547, a relative viability ([1]; first compound 0.03162 µM) of 0.559 and a relative viability ([1]; first compound 0.1 µM) of 0.531. For the same cell line, the relative viability ([1]; first compound 0.3162 µM) was 0.628, the relative viability ([1]; first compound 1 µM) was 0.603 and the relative viability ([2]; first compound 0.01 µM) was 0.869. For the same cell line, the relative viability ([2]; first compound 0.03162 µM) was 0.853, the relative viability ([2]; first compound 0.1 µM) was 0.865 and the relative viability ([2]; first compound 0.3162 µM) was 0.849. For the same cell line, the relative viability ([3]; first compound 0.01 µM) was 0.393, the relative viability ([3]; first compound 0.03162 µM) was 0.427 and the relative viability ([3]; first compound 0.1 µM) was 0.392. The relative viability ([3]; first compound 0.3162 µM) was 0.366, the relative viability ([4]; first compound 0.01 µM) was 0.565 and the relative viability ([4]; first compound 0.03162 µM) was 0.654. For the same cell line, the relative viability ([4]; first compound 0.1 µM) was 0.615, the relative viability ([4]; first compound 0.3162 µM) was 0.558 and the relative viability ([4]; first compound 1 µM) was 0.568.
